Laboratory results published in patent US12534706B2, “Method for maturation of retinal tissue containing continuous epithelium” (RIKEN, priority 2017, dated 2026).

Columns and labels:
[1] = test system: cell aggregate containing a retinal tissue (CRX::Venus knock-in human ES cells); assay: Continuous epithelium rate of retinal tissue after adding a substance to the medium of culture method [B] (day 38 to 56); format: cell-based; settings: day 38 to day 54, 55 or 56
Procedure: A cell aggregate containing a retinal tissue was prepared by the method described in “Kuwahara et al. Nat Commun 2015, 19(6), 6286” after modification in part. That is, the aforementioned cultured ES cells were individually dispersed using TrypLE Express (Invitrogen), and the individually dispersed human ES cells were suspended in 100 μL of a serum-free medium in a cell non-adhesive 96 well culture plate (SUMILON spheroid plate, SUMITOMO BAKELITE CO., LTD.) at 9×10^3 cells per well to allow rapid formation of aggregates, after which they were cultured at 37° C., 5% CO2. As the serum-free medium therefor, a serum-free medium obtained by adding 10% KSR, 450 μM 1-monothioglycerol, 1× Chemically defined lipid concentrate, 5 mg/mL BSA, 20 μM Y27632 to a 1:1 mixture of F-12 medium and IMDM medium was used. At 6 days after the start of suspension culture, BMP4 at a final concentration of 1.5 nM was added and suspension culture was continued. A half amount of the culture medium in the well was exchanged with the above-mentioned medium not supplemented with a BMP signal transduction pathway agonist every 3 or 4 days. A cell aggregate containing a retinal tissue at day 18 from the start of suspension culture was cultured in suspension in a serum-free medium containing 3 μM CHIR99021 and 5 μM SU5402 (DMEM/F12 medium supplemented with 1% N2 supplement) for 4 days, namely, until day 22 from the start of suspension culture. Thereafter, suspension culture was continued using the serum-containing medium. The serum-containing medium used then and the culture method are shown in the following [A] to [C]. The suspension culture of the cell aggregate containing the retinal tissue was continued until it was appropriately used for analysis and the like. • [A] From day 22 to day 56 from the start of suspension culture, suspension culture was performed using a medium obtained by adding 10% bovine calf serum, 1% N2 supplement, and 100 μM taurine to the DMEM/F12 medium. • [B] From day 22 to day 38 from the start of suspension culture, suspension culture was performed using a medium obtained by adding 10% bovine calf serum, 1% N2 supplement, and 100 μM taurine to the DMEM/F12 medium; and from day 38 to day 56 from the start of suspension culture, suspension culture was performed using a 1:3 mixed medium of a medium obtained by adding 10% bovine calf serum, 1% N2 supplement, and 100 μM taurine to the DMEM/F12 medium and a medium obtained by adding 10% bovine calf serum, 2% B27 supplement, and 100 μM taurine to the Neurobasal medium. • [C] From day 22 to day 56 from the start of suspension culture, suspension culture was performed using a medium obtained by adding 10% bovine calf serum, 2% B27 supplement, and 100 μM taurine to the Neurobasal medium (manufactured by Thermo Scientific, 21103049).
Thus, among the substances contained in the medium used in the culture method [B] from day 38 to day 56 from the start of suspension culture in the culturing method [B], a substance that may greatly affect cell differentiation, cell protection, and cell death of retinal tissues was added to the medium used in the culture method [A], and whether it contributes to the improvement of continuous epithelium rate was studied. […]

[2] = test system: cell aggregate containing a retinal tissue (CRX::Venus knock-in human ES cells); assay: Continuous epithelium rate of retinal tissue after adding a substance to the medium of culture method [A]; format: cell-based; settings: day 38 to day 54, 55 or 56
Procedure: A cell aggregate containing a retinal tissue was prepared by the method described in “Kuwahara et al. Nat Commun 2015, 19(6), 6286” after modification in part. That is, the aforementioned cultured ES cells were individually dispersed using TrypLE Express (Invitrogen), and the individually dispersed human ES cells were suspended in 100 μL of a serum-free medium in a cell non-adhesive 96 well culture plate (SUMILON spheroid plate, SUMITOMO BAKELITE CO., LTD.) at 9×10^3 cells per well to allow rapid formation of aggregates, after which they were cultured at 37° C., 5% CO2. As the serum-free medium therefor, a serum-free medium obtained by adding 10% KSR, 450 μM 1-monothioglycerol, 1× Chemically defined lipid concentrate, 5 mg/mL BSA, 20 μM Y27632 to a 1:1 mixture of F-12 medium and IMDM medium was used. At 6 days after the start of suspension culture, BMP4 at a final concentration of 1.5 nM was added and suspension culture was continued. A half amount of the culture medium in the well was exchanged with the above-mentioned medium not supplemented with a BMP signal transduction pathway agonist every 3 or 4 days. A cell aggregate containing a retinal tissue at day 18 from the start of suspension culture was cultured in suspension in a serum-free medium containing 3 μM CHIR99021 and 5 μM SU5402 (DMEM/F12 medium supplemented with 1% N2 supplement) for 4 days, namely, until day 22 from the start of suspension culture. Thereafter, suspension culture was continued using the serum-containing medium. The serum-containing medium used then and the culture method are shown in the following [A] to [C]. The suspension culture of the cell aggregate containing the retinal tissue was continued until it was appropriately used for analysis and the like. • [A] From day 22 to day 56 from the start of suspension culture, suspension culture was performed using a medium obtained by adding 10% bovine calf serum, 1% N2 supplement, and 100 μM taurine to the DMEM/F12 medium. • [B] From day 22 to day 38 from the start of suspension culture, suspension culture was performed using a medium obtained by adding 10% bovine calf serum, 1% N2 supplement, and 100 μM taurine to the DMEM/F12 medium; and from day 38 to day 56 from the start of suspension culture, suspension culture was performed using a 1:3 mixed medium of a medium obtained by adding 10% bovine calf serum, 1% N2 supplement, and 100 μM taurine to the DMEM/F12 medium and a medium obtained by adding 10% bovine calf serum, 2% B27 supplement, and 100 μM taurine to the Neurobasal medium. • [C] […]

Q: With vitamin B12 as the compound, how does the continuous epithelium rate ([1]; final concentration 0.68 mg/L in culture method [B] medium) read?
A: contributed to a decrease

Q: `N[C@@H](CC(=O)O)C(=O)O` [L-aspartic acid] was tested. Which continuous epithelium rate ([1]; L-aspartic acid alone, final concentration 50 μM in culture method [B] medium) did it give?
A: decreased the continuous epithelium rate slightly, but the difference was not significant

Q: How did the continuous epithelium rate ([2]; final concentration 0.22 mM in culture method [A] medium, vs nothing added) turn out when `N[C@@H](CS)C(=O)O` [cysteine] was run?
A: decreased

Q: `N[C@@H](CCC(=O)O)C(=O)O` [L-glutamic acid] was tested. Which continuous epithelium rate ([1]; L-glutamic acid alone, final concentration 50 μM in culture method [B] medium) did it give?
A: contributed to the decrease

Q: `C[C@]12C[C@H](O)[C@H]3[C@@H](CCC4=CC(=O)CC[C@@]43C)[C@@H]1CC[C@@H]2C(=O)CO` [corticosterone, reference compound] was tested. Which continuous epithelium rate ([2]; final concentration 100 nM added to culture method [A] medium, vs nothing added (corticosterone)) did it give?
A: increased

Q: With `Cc1cn([C@H]2C[C@H](O)[C@@H](CO)O2)c(=O)[nH]c1=O` [thymidine] as the compound, how does the continuous epithelium rate ([1]; final concentration 1.5 μM in culture method [B] medium) read?
A: contributed to a decrease

Q: For `O=c1[nH]cnc2nc[nH]c12` [hypoxanthine], which continuous epithelium rate ([1]; final concentration 15 μM in culture method [B] medium) is on record?
A: contributed to a decrease

Q: How did the continuous epithelium rate ([2]; final concentration 100 nM added to culture method [A] medium, vs nothing added (progesterone)) turn out when `CC(=O)[C@H]1CC[C@H]2[C@@H]3CCC4=CC(=O)CC[C@]4(C)[C@H]3CC[C@]12C` [progesterone, reference compound] was run?
A: similarly decreased

Q: `CSCC[C@H](N)C(=O)O` [methionine] was tested. Which continuous epithelium rate ([2]; final concentration 26.81 mg/L in culture method [A] medium, vs nothing added) did it give?
A: increased
